According to PMC11178787, “Development of a natural product optimization strategy for inhibitors against MraY, a promising antibacterial target” (Nature Communications, 2024):
≈ marks a conversion by molar mass, not a printed value.

Tests used:
Assay in all cases: microbe, parasite or virus in culture
Design in all cases: CLSI broth microdilution MIC in MHB-II
[1] = system: T1, Staphylococcus aureus #2071; conditions: Staphylococcus aureus, 18 h, read-out: MIC
T1 construct: #2071
Method: (§1) MICs were determined by a microdilution broth method as recommended by the CLSI with MHB-II. For MICs of stable analogues, a 2-fold dilution of each compound was prepared in DMSO at 100-fold of the final concentration. The strains were inoculated with 5 × 10^5 cfu/mL in 96-well plates (each 100 μL/well), and 1 μL of DMSO solutions of the samples were added (contained less than 1% DMSO). The plates were incubated at 37 °C for 18 h and then MICs were determined. MICs of stable analogues in Table 1 were the highest value in three trials. MICs in Supplementary Table 1 were determined in one trial.

Enterococcus faecium 8 = conditions: Enterococcus faecium, 8, 18 h, read-out: MIC
Method: as §1

Enterococcus faecium 3 = conditions: Enterococcus faecium, 3, 18 h, read-out: MIC
Method: as §1

[2] = system: T2, Staphylococcus aureus #2110; conditions: Staphylococcus aureus, 18 h, read-out: MIC
T2 construct: #2110
Method: as §1

Enterococcus faecalis 29 = system: T3, Enterococcus faecalis 29; conditions: Enterococcus faecalis, 29, 18 h, read-out: MIC
T3 construct: 29
Method: as §1

Enterococcus faecalis 23 = system: T4, Enterococcus faecalis 23; conditions: Enterococcus faecalis, 23, 18 h, read-out: MIC
T4 construct: 23
Method: as §1

Enterococcus faecalis 22 = system: T5, Enterococcus faecalis 22; conditions: Enterococcus faecalis, 22, 18 h, read-out: MIC
T5 construct: 22
Method: as §1

Enterococcus faecalis 21 = system: T6, Enterococcus faecalis 21; conditions: Enterococcus faecalis, 21, 18 h, read-out: MIC
T6 construct: 21
Method: as §1

Enterococcus faecium 5 = conditions: Enterococcus faecium, 5, 18 h, read-out: MIC
Method: as §1

[3] = system: T7, Staphylococcus aureus #2334; conditions: Staphylococcus aureus, 18 h, read-out: MIC
T7 construct: #2334
Method: as §1

[4] = system: T8, Staphylococcus aureus #2931; conditions: Staphylococcus aureus, 18 h, read-out: MIC
T8 construct: #2931
Method: as §1

[5] = system: T9, Staphylococcus aureus #2310; conditions: Staphylococcus aureus, 18 h, read-out: MIC
T9 construct: #2310
Method: as §1

Enterococcus faecium 7 = conditions: Enterococcus faecium, 7, 18 h, read-out: MIC
Method: as §1

Enterococcus faecalis 28 = system: T10, Enterococcus faecalis 28; conditions: Enterococcus faecalis, 28, 18 h, read-out: MIC
T10 construct: 28
Method: as §1

[6] = system: T11, Staphylococcus aureus #1958; conditions: Staphylococcus aureus, 18 h, read-out: MIC
T11 construct: #1958
Method: as §1

[7] = system: T12, Staphylococcus aureus #2933; conditions: Staphylococcus aureus, 18 h, read-out: MIC
T12 construct: #2933
Method: as §1

Enterococcus faecium 1 = conditions: Enterococcus faecium, 1, 18 h, read-out: MIC
Method: as §1

Enterococcus faecalis 25 = system: T13, Enterococcus faecalis 25; conditions: Enterococcus faecalis, 25, 18 h, read-out: MIC
T13 construct: 25
Method: as §1

Enterococcus faecalis 26 = system: T14, Enterococcus faecalis 26; conditions: Enterococcus faecalis, 26, 18 h, read-out: MIC
T14 construct: 26
Method: as §1

Enterococcus faecium 2 = conditions: Enterococcus faecium, 2, 18 h, read-out: MIC
Method: as §1

Enterococcus faecalis 27 = system: T15, Enterococcus faecalis 27; conditions: Enterococcus faecalis, 27, 18 h, read-out: MIC
T15 construct: 27
Method: as §1

[8] = system: T16, Staphylococcus aureus #2934; conditions: Staphylococcus aureus, 18 h, read-out: MIC
T16 construct: #2934
Method: as §1

Enterococcus faecium 4 = conditions: Enterococcus faecium, 4, 18 h, read-out: MIC
Method: as §1

Enterococcus faecium 9 = conditions: Enterococcus faecium, 9, 18 h, read-out: MIC
Method: as §1

[9] = system: T17, Staphylococcus aureus #2935; conditions: Staphylococcus aureus, 18 h, read-out: MIC
T17 construct: #2935
Method: as §1

[10] = system: T18, Staphylococcus aureus #2932; conditions: Staphylococcus aureus, 18 h, read-out: MIC
T18 construct: #2932
Method: as §1

Compound | MIC (Enterococcus faecium 8) [µg/mL] | MIC (Enterococcus faecium 3) [µg/mL] | MIC [2] [µg/mL] | MIC (Enterococcus faecalis 29) [µg/mL] | MIC (Enterococcus faecalis 23) [µg/mL] | MIC (Enterococcus faecalis 22) [µg/mL] | MIC (Enterococcus faecalis 21) [µg/mL] | MIC (Enterococcus faecium 5) [µg/mL] | MIC [4] [µg/mL] | MIC (Enterococcus faecium 7) [µg/mL] | MIC (Enterococcus faecalis 28) [µg/mL] | MIC [6] [µg/mL] | MIC [7] [µg/mL] | MIC (Enterococcus faecium 1) [µg/mL] | MIC (Enterococcus faecalis 25) [µg/mL] | MIC (Enterococcus faecalis 26) [µg/mL] | MIC (Enterococcus faecium 2) [µg/mL] | MIC (Enterococcus faecalis 27) [µg/mL] | MIC [8] [µg/mL] | MIC (Enterococcus faecium 4) [µg/mL] | further results
CCCCCCCCCCCCCCCC(=O)N[C@@H](CCCNC(=N)N)C(=O)Nc1ccc(CN[C@H](C(=O)O)[C@H](O[C@@H]2O[C@H](CN)[C@@H](O)[C@H]2O)[C@H]2O[C@@H](n3ccc(=O)[nH]c3=O)[C@H](O)[C@@H]2O)cc1 [compound 7, analogue 7] | 0.5 (≈ 0.527 µM) | 1 (≈ 1.05 µM) | 2 (≈ 2.11 µM) | < 0.06 | 0.5 (≈ 0.527 µM) | 0.13 (≈ 0.137 µM) | 0.5 (≈ 0.527 µM) | 0.5 (≈ 0.527 µM) | 1 (≈ 1.05 µM) | 0.5 (≈ 0.527 µM) | < 0.06 | 1 (≈ 1.05 µM) | 1 (≈ 1.05 µM) | 1 (≈ 1.05 µM) | 0.25 (≈ 0.264 µM) | 0.13 (≈ 0.137 µM) | 0.5 (≈ 0.527 µM) | 0.25 (≈ 0.264 µM) | 1 (≈ 1.05 µM) | 0.5 (≈ 0.527 µM) | MIC [1]: 1 µg/mL (≈ 1.05 µM); MIC [3]: 2 µg/mL (≈ 2.11 µM); MIC [5]: 2 µg/mL (≈ 2.11 µM); MIC (Enterococcus faecium 9): 0.25 µg/mL (≈ 0.264 µM)
CCCCCCCCCCCCCCCC(=O)N[C@@H](CCCCN)C(=O)Nc1cccc(CN[C@H](C(=O)O)[C@H](O[C@@H]2O[C@H](CN)[C@@H](O)[C@H]2O)[C@H]2O[C@@H](n3ccc(=O)[nH]c3=O)[C@H](O)[C@@H]2O)c1 [compound 6, analogue 6] | 0.5 (≈ 0.543 µM) | 1 (≈ 1.09 µM) | 2 (≈ 2.17 µM) | 0.25 (≈ 0.272 µM) | 0.5 (≈ 0.543 µM) | 0.5 (≈ 0.543 µM) | 0.25 (≈ 0.272 µM) | 1 (≈ 1.09 µM) | 0.5 (≈ 0.543 µM) | 2 (≈ 2.17 µM) | 0.13 (≈ 0.141 µM) | 1 (≈ 1.09 µM) | 0.5 (≈ 0.543 µM) | 1 (≈ 1.09 µM) | 0.5 (≈ 0.543 µM) | 0.25 (≈ 0.272 µM) | 1 (≈ 1.09 µM) | 0.5 (≈ 0.543 µM) | 0.5 (≈ 0.543 µM) | 0.5 (≈ 0.543 µM) | MIC [1]: 64 µg/mL (≈ 69.6 µM); MIC [3]: 1 µg/mL (≈ 1.09 µM); MIC [9]: 1 µg/mL (≈ 1.09 µM); MIC (Enterococcus faecium 9): 1 µg/mL (≈ 1.09 µM)
CCCCCCCCCCCCCCCC(=O)N[C@@H](CCCNC(=N)N)C(=O)Nc1cccc(CN[C@H](C(=O)O)[C@H](O[C@@H]2O[C@H](CN)[C@@H](O)[C@H]2O)[C@H]2O[C@@H](n3ccc(=O)[nH]c3=O)[C@H](O)[C@@H]2O)c1 [compound 8, analogue 8] | 1 (≈ 1.05 µM) | 2 (≈ 2.11 µM) | 2 (≈ 2.11 µM) | 0.13 (≈ 0.137 µM) | 0.25 (≈ 0.264 µM) | 1 (≈ 1.05 µM) | 1 (≈ 1.05 µM) | 1 (≈ 1.05 µM) | 1 (≈ 1.05 µM) | 1 (≈ 1.05 µM) | < 0.06 | 2 (≈ 2.11 µM) | 1 (≈ 1.05 µM) | 1 (≈ 1.05 µM) | 0.5 (≈ 0.527 µM) | 0.25 (≈ 0.264 µM) | 2 (≈ 2.11 µM) | 0.5 (≈ 0.527 µM) | 1 (≈ 1.05 µM) | 1 (≈ 1.05 µM) | MIC [1]: 64 µg/mL (≈ 67.5 µM); MIC [10]: 2 µg/mL (≈ 2.11 µM); MIC [5]: 2 µg/mL (≈ 2.11 µM); MIC [9]: 2 µg/mL (≈ 2.11 µM); MIC (Enterococcus faecium 9): 1 µg/mL (≈ 1.05 µM)
CCCCCCCCCCCCCCCC(=O)N[C@@H](CCCNC(=N)N)C(=O)NCc1ccc(CN[C@H](C(=O)O)[C@H](O[C@@H]2O[C@H](CN)[C@@H](O)[C@H]2O)[C@H]2O[C@@H](n3ccc(=O)[nH]c3=O)[C@H](O)[C@@H]2O)cc1 [compound 3, analogue 3] | 0.5 (≈ 0.52 µM) | 1 (≈ 1.04 µM) | 2 (≈ 2.08 µM) | 0.25 (≈ 0.26 µM) | 0.13 (≈ 0.135 µM) | 0.13 (≈ 0.135 µM) | 0.5 (≈ 0.52 µM) | 1 (≈ 1.04 µM) | 1 (≈ 1.04 µM) | 1 (≈ 1.04 µM) | < 0.06 | 2 (≈ 2.08 µM) | 1 (≈ 1.04 µM) | 1 (≈ 1.04 µM) | 0.13 (≈ 0.135 µM) | 0.13 (≈ 0.135 µM) | 1 (≈ 1.04 µM) | 0.25 (≈ 0.26 µM) | 1 (≈ 1.04 µM) | 0.5 (≈ 0.52 µM) | MIC [10]: 2 µg/mL (≈ 2.08 µM); MIC [3]: 1 µg/mL (≈ 1.04 µM); MIC [5]: 2 µg/mL (≈ 2.08 µM); MIC (Enterococcus faecium 9): 0.5 µg/mL (≈ 0.52 µM)
CN[C@H](CC(C)C)C(=O)N[C@H]1C(=O)N[C@@H](CC(N)=O)C(=O)N[C@H]2C(=O)N[C@H]3C(=O)N[C@H](C(=O)N[C@H](C(=O)O)c4cc(O)cc(O)c4-c4cc3ccc4O)[C@H](O)c3ccc(c(Cl)c3)Oc3cc2cc(c3O[C@@H]2O[C@H](CO)[C@@H](O)[C@H](O)[C@H]2O[C@H]2C[C@](C)(N)[C@H](O)[C@H](C)O2)Oc2ccc(cc2Cl)[C@H]1O [vancomycin] | 1 (≈ 0.69 µM) | 1 (≈ 0.69 µM) | 2 (≈ 1.38 µM) | 1 (≈ 0.69 µM) | 1 (≈ 0.69 µM) | 1 (≈ 0.69 µM) | 1 (≈ 0.69 µM) | 1 (≈ 0.69 µM) | 1 (≈ 0.69 µM) | 0.5 (≈ 0.345 µM) | 1 (≈ 0.69 µM) | 1 (≈ 0.69 µM) | 1 (≈ 0.69 µM) | 1 (≈ 0.69 µM) | 1 (≈ 0.69 µM) | 1 (≈ 0.69 µM) | 1 (≈ 0.69 µM) | 1 (≈ 0.69 µM) | 1 (≈ 0.69 µM) | 1 (≈ 0.69 µM) | MIC [10]: 2 µg/mL (≈ 1.38 µM); MIC [3]: 2 µg/mL (≈ 1.38 µM); MIC [5]: 2 µg/mL (≈ 1.38 µM); MIC (Enterococcus faecium 9): 1 µg/mL (≈ 0.69 µM)
CCCCCCCCCCCCCCCC(=O)N[C@@H](CCCCN)C(=O)Nc1ccc(CN[C@H](C(=O)O)[C@H](O[C@@H]2O[C@H](CN)[C@@H](O)[C@H]2O)[C@H]2O[C@@H](n3ccc(=O)[nH]c3=O)[C@H](O)[C@@H]2O)cc1 [compound 5, analogue 5] | 0.25 (≈ 0.272 µM) | 0.5 (≈ 0.543 µM) | 1 (≈ 1.09 µM) | < 0.06 | 0.13 (≈ 0.141 µM) | 0.13 (≈ 0.141 µM) | 0.5 (≈ 0.543 µM) | 0.5 (≈ 0.543 µM) | 0.25 (≈ 0.272 µM) | 0.5 (≈ 0.543 µM) | < 0.06 | 1 (≈ 1.09 µM) | 0.5 (≈ 0.543 µM) | 1 (≈ 1.09 µM) | 0.25 (≈ 0.272 µM) | 0.13 (≈ 0.141 µM) | 0.5 (≈ 0.543 µM) | 0.25 (≈ 0.272 µM) | 0.25 (≈ 0.272 µM) | 0.25 (≈ 0.272 µM) | MIC [1]: 0.5 µg/mL (≈ 0.543 µM); MIC [10]: 1 µg/mL (≈ 1.09 µM); MIC [3]: 1 µg/mL (≈ 1.09 µM); MIC [5]: 1 µg/mL (≈ 1.09 µM); MIC [9]: 1 µg/mL (≈ 1.09 µM); MIC (Enterococcus faecium 9): 0.25 µg/mL (≈ 0.272 µM)
C[C@H]1COc2c(N3CCN(C)CC3)c(F)cc3c(=O)c(C(=O)O)cn1c23 [levofloxacin] | > 32 | > 32 | > 32 | 0.5 (≈ 1.38 µM) | 1 (≈ 2.77 µM) | 1 (≈ 2.77 µM) | 0.5 (≈ 1.38 µM) | 32 (≈ 88.6 µM) | 16 (≈ 44.3 µM) | 0.5 (≈ 1.38 µM) | 1 (≈ 2.77 µM) | > 32 | > 32 | > 32 | 0.5 (≈ 1.38 µM) | 0.5 (≈ 1.38 µM) | > 32 | 1 (≈ 2.77 µM) | > 32 | > 32 | MIC [1]: 0.13 µg/mL (≈ 0.36 µM); MIC [10]: > 32 µg/mL; MIC [3]: > 32 µg/mL; MIC [5]: > 32 µg/mL; MIC [9]: > 32 µg/mL; MIC (Enterococcus faecium 9): > 32 µg/mL
